This is an account of results in ChEMBL document CHEMBL5131486, “Design, synthesis, biological evaluation and molecular modeling of N-isobutyl-N-((2-(p-tolyloxymethyl)thiazol-4yl)methyl)benzo[d][1,3] dioxole-5-carboxamides as selective butyrylcholinesterase inhibitors” (Bioorg Med Chem Lett, 2022).

Calls of active or inactive are those of the source. No cut-off for these calls is given here. Where only a bound is given, the exact number is not on record here.

Data set [1] deals with T1, Acetylcholinesterase (Homo sapiens, UniProt P22303). Nature of the data set: Inhibition of AChE (unknown origin) at 10 uM relative to control.
T1 sequence (P22303 whole entry): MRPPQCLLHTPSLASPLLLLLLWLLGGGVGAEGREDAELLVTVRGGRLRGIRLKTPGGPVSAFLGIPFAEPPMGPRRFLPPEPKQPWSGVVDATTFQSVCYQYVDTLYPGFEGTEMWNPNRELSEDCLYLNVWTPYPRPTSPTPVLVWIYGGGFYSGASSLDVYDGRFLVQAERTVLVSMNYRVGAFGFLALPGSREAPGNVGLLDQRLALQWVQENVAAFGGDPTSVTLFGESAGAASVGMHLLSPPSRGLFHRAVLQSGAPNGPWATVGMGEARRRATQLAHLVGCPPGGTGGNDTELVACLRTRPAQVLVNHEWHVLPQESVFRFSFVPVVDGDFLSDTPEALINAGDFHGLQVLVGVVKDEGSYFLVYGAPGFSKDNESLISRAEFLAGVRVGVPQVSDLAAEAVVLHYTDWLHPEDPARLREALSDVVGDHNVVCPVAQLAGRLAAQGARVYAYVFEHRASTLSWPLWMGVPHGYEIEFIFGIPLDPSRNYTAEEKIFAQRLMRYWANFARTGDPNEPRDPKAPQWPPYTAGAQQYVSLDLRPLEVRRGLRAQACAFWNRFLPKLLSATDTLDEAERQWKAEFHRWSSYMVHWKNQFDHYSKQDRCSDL
In data set [2] the target is T2, Cholinesterase (Homo sapiens, UniProt P06276). Nature of the data set: Inhibition of BuchE (unknown origin).
T2 sequence (P06276 whole entry): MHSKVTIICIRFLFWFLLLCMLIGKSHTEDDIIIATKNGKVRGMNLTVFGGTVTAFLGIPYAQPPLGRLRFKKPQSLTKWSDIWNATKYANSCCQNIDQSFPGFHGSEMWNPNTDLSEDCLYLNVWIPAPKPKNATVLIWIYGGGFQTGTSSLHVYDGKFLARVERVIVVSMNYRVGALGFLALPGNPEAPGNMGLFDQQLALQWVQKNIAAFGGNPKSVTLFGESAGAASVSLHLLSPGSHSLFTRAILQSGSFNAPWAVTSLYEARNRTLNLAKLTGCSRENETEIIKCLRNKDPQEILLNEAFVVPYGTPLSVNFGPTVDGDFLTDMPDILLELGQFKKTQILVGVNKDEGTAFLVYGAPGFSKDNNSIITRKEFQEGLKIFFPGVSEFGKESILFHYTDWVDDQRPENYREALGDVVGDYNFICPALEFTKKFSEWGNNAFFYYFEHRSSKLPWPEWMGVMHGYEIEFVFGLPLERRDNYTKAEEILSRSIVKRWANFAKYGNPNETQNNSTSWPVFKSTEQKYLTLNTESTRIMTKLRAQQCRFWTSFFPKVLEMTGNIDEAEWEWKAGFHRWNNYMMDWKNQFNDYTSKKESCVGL
In data set [3] the target is T2, Cholinesterase. Nature of the data set: Inhibition of BuchE (unknown origin) at 10 uM relative to control.
For data set [4], the system named is HepG2. Briefly: Cytotoxicity against human HepG2 cells assessed as reduction in cell viability at 50 uM incubated for 24 hrs by MTT assay relative to control. The format is toxicity, cell-based. The conditions noted are these: hepg2, 24 h. A general note: Tetrazolium assays rely on reduction of a dye to a coloured formazan, in cell work by metabolically active cells.

Data set [5] concerns the target T2, Cholinesterase. Briefly: Competitive inhibition of BuChE (unknown origin) assessed as increase in Km with constant Vmax at 0 to 400 nM using varying concentrations of substrate by Lineweaver-Burk plot analysis. The conditions noted are these: dose 0-400 nM.
Data set [6] deals with SH-SY5Y. Nature of the data set: Cytotoxicity against human SH-SY5Y cells assessed as reduction in cell viability at 50 uM incubated for 24 hrs by MTT assay relative to control. The format is toxicity, cell-based.
A short description of data set [7]: Permeability of compound by PAMPA-BBB assay. The format is ADME. As to conditions: read-out: permeability. Background: The PAMPA barrier holds no transporters, so it reflects passive diffusion.
Data set [8] relates to SH-SY5Y. Nature of the data set: Cytotoxicity against human SH-SY5Y cells assessed as reduction in cell viability at <20 uM incubated for 24 hrs by MTT assay. The format is toxicity, cell-based.
Data set [9] has as its system HepG2. Nature of the data set: Cytotoxicity against human HepG2 cells assessed as reduction in cell viability at <20 uM incubated for 24 hrs by MTT assay. The format is toxicity, cell-based. The conditions noted are these: hepg2, 24 h.
For data set [10], the target named is T1, Acetylcholinesterase. Nature of the data set: Inhibition of AChE (unknown origin).

Regarding `Cc1ccc(OCc2nc(CN(CC(C)C)C(=O)c3cccs3)cs2)cc1`, the values for the inhibition in [1] and in data set [3] were -0.31% and 82%, respectively. Further, the half-maximal inhibitory concentration (IC50) in data set [2] is 2.3 µM.

For `Cc1ccc(OCc2nc(CN(CC(C)C)C(=O)c3cccc(F)c3)cs2)cc1`, the inhibition was 0.51% in [1] and 78.2% in data set [3]. In addition, in [2], half-maximal inhibition (IC50) was put at 2.43 µM.

As for `Cc1ccc(OCc2nc(CN(CC(C)C)C(=O)S(=O)(=O)c3ccc(C)cc3)cs2)cc1`, the results for the inhibition in data set [1] and in [3] were 10.1% and 38.4%, respectively.

In the case of `CC(C)CN(Cc1csc(COc2ccc(F)cc2)n1)C(=O)c1ccc2c(c1)OCO2`, the results for the inhibition in [1] and in data set [3] were -9.02% and 96.4%, respectively. Also, the Activity is recorded as under 40% in data set [4], under 40% in [6], “Non-Toxic” in data set [8] and “Non-Toxic” in [9]. Further, the inhibition entry in data set [5] was “Active”. Moreover, in data set [2], the half-inhibitory concentration (IC50) stood at 0.13 µM. Moreover, the Papp in [7] amounted to 4.97 ×10⁻⁶ cm/s.

Consider `COCc1nc(CN(CC(C)C)C(=O)c2ccc3c(c2)OCO3)cs1`, for which the inhibition turned out to be 4.72% in data set [1] and 15.3% in data set [3].

Take `CNC(=O)Oc1ccc2c(c1)[C@]1(C)CCN(C)[C@]1(C)N2C`: the IC50 in data set [2] is 0.016 µM.

Turning to `CCC(=O)N(Cc1csc(COc2ccc(C)cc2)n1)CC(C)C`, the inhibition in [1] was -2.4%; in data set [3], 55.3%. The compound further showed an IC50 in data set [2] of 8.08 µM.

Regarding `Cc1ccc(OCc2nc(CN(CC(C)C)C(=O)S(=O)(=O)c3cccnc3)cs2)cc1`, the results for the inhibition in [1] and in data set [3] were 16.5% and 48.3%, respectively.

Turning to `COc1cccc(C(=O)N(Cc2csc(COc3ccc(C)cc3)n2)CC(C)C)c1`, the values for the inhibition in [1] and in data set [3] were 1.46% and 91.4%, respectively. Half-maximal inhibition in [2] (IC50) was put at 0.97 µM.

Regarding `Cc1ccc(OCc2nc(CN(CC(C)C)C(=O)c3ccccc3)cs2)cc1`, the inhibition was 0.25% in data set [1] and 92% in data set [3]. In data set [2], this compound gave an IC50 of 1.15 µM.

For `CN1c2ccccc2C(NCCCCCCC(=O)CCCCNc2c3c(nc4ccccc24)CCCC3)c2ccc(Cl)cc2S1(=O)=O` (centres undefined), the IC50 was 0.16 µM in [10] and 0.004 µM in [2].

Turning to `Cc1ccc(OCc2nc(CN(CC(C)C)C(=O)c3ccccc3F)cs2)cc1`, it took 1.39 µM to reach half-maximal inhibition in [2] (IC50). The inhibition in data set [3] worked out at 86.6%.

As for `Cc1ccc(OCc2nc(CN(CC(C)C)C(=O)c3ccc4c(c3)OCO4)cs2)cc1`, the inhibition in data set [1] turned out to be 1.76%; in data set [3] it was 87.2%. Besides, the IC50 in [2] was 1.28 µM.

As for `CC(C)CN(Cc1csc(COc2ccc(F)cc2)n1)C(=O)S(=O)(=O)c1ccccc1`, the inhibition came to 9.12% in data set [1] and 55.1% in data set [3]. The IC50 in data set [2] was 8.19 µM.

Regarding `Cc1ccc(S(=O)(=O)C(=O)N(Cc2csc(COc3ccc(F)cc3)n2)CC(C)C)cc1`, the inhibition is 14.3% in data set [1] and 64.4% in [3]. The compound further displayed an IC50 in data set [2] of 6.85 µM.

Regarding `Cc1ccc(OCc2nc(CN(CC(C)C)C(=O)c3c(F)cccc3F)cs2)cc1`, the inhibition in data set [1] is 0.18%; in data set [3] it was 66.4%. Further, it took 4.89 µM to reach half-maximal inhibition in data set [2] (IC50).

On to `Cc1ccc(OCc2nc(CN(CC(C)C)C(=O)c3ccc(C)cc3)cs2)cc1`, for which the midpoint of inhibition in data set [2], the IC50, lay at 1.05 µM. In addition, in data set [3], the inhibition came to 92.6%.

Regarding `CN(Cc1csc(COc2ccc(F)cc2)n1)C(=O)c1ccc2c(c1)OCO2`, the inhibition stood at 12.8% in data set [1] and 31.9% in data set [3].

For `COc1ccc(OCc2nc(CN(CC(C)C)C(=O)c3ccc4c(c3)OCO4)cs2)cc1`, the inhibition in [1] was -5.49%; in data set [3] it was 77.8%. This compound also yielded an IC50 in data set [2] of 1.8 µM.

Regarding `CCCCCC(=O)N(Cc1csc(COc2ccc(C)cc2)n1)CC(C)C`, the inhibition in data set [1] came to 2.55%; in [3], 86.1%. The IC50 in data set [2] is 1.99 µM.

In turn, `Cc1ccc(OCc2nc(CN(CC(C)C)C(=O)c3ccccc3Cl)cs2)cc1` showed an IC50 in [2] of 3.94 µM. Also, the inhibition in data set [3] was 72.4%.

As for `COc1ccc(C(=O)N(Cc2csc(COc3ccc(C)cc3)n2)CC(C)C)cc1`, the inhibition in data set [1] is 4.91%; in data set [3] it was 32.8%.

As to `CC(C)CN(Cc1csc(COc2ccc(C(F)(F)F)cc2)n1)C(=O)c1ccc2c(c1)OCO2`, the results for the inhibition in data set [1] and in [3] were 1.71% and 65.9%, respectively. Also, the IC50 in data set [2] was 5.23 µM.

In the case of `Cc1ccc(OCc2nc(CN(CC(C)C)C(=O)c3ccc(F)cc3)cs2)cc1`, inhibition in data set [2] was half-maximal at 2.21 µM (IC50). In addition, the inhibition in [3] is 82.2%.

For `CC(=O)N(Cc1csc(COc2ccc(C)cc2)n1)CC(C)C`, the inhibition in data set [1] turned out to be 19.9%; in data set [3], 64.8%. The compound further yielded an IC50 in [2] of 6.01 µM.

With `Cc1ccc(OCc2nc(CN(CC(C)C)C(=O)c3cccc(Cl)c3)cs2)cc1`, the inhibition in [1] was -3.62%; in [3], 97%. The compound also had an IC50 in data set [2] of 0.86 µM.

In the case of `COc1ccccc1C(=O)N(Cc1csc(COc2ccc(C)cc2)n1)CC(C)C`, the inhibition was 2.25% in [1] and 26% in [3].

With `Cc1ccc(OCc2nc(CN(CC(C)C)C(=O)S(=O)(=O)c3ccccc3)cs2)cc1`, the results for the inhibition in data set [1] and in data set [3] were 12% and 32.9%, respectively.

On to `Cc1ccc(OCc2nc(CN(CC(C)C)C(=O)c3cccc(C)c3)cs2)cc1`, for which the inhibition in data set [1] was -5.65%; in data set [3], 94.1%. Also, in [2], inhibition was half-maximal at 1.17 µM (IC50).

Turning to `CC(C)CN(Cc1csc(COc2ccc(F)cc2)n1)C(=O)S(=O)(=O)c1ccc2ccccc2c1`, the inhibition was 20.9% in [1] and 40.7% in data set [3].

For `Nc1c2c(nc3ccccc13)CCCC2`, the inhibition in data set [3] stood at 0.07%.

With `Cc1ccc(OCc2nc(CN(CC(C)C)C(=O)c3ccccc3C)cs2)cc1`, half-maximal inhibition in data set [2] (IC50) required 4.1 µM. The inhibition in [3] was 75.2%.

As for `Cc1ccc(OCc2nc(CN(CC(C)C)C(=O)c3ccc(Cl)cc3)cs2)cc1`, the inhibition was -6.51% in data set [1] and 65.5% in data set [3]. The compound also showed an IC50 in data set [2] of 2.23 µM.

On to `CC(C)CN(Cc1csc(COc2ccc(Cl)cc2)n1)C(=O)c1ccc2c(c1)OCO2`, for which the values for the inhibition in [1] and in data set [3] were -9.46% and 91.2%, respectively. The compound further registered a half-inhibitory concentration (IC50) in data set [2] of 0.24 µM.

Consider `CC(=O)[C@H]1CC[C@H]2[C@@H]3CCC4=CC(=O)CC[C@]4(C)[C@H]3CC[C@]12C` [PROGESTERONE], for which the Papp in [7] was found to be 8.9 ×10⁻⁶ cm/s.

For `Cc1ccc(OCc2nc(CN(CC(C)C)C(=O)S(=O)(=O)c3ccc4ccccc4c3)cs2)cc1`, the inhibition in data set [1] came to 18.7%; in [3] it was 36.5%.

`CCCC(=O)N(Cc1csc(COc2ccc(C)cc2)n1)CC(C)C`: the inhibition in data set [1] came out at 21.2%; in data set [3] it was 66%. In addition, the IC50 in data set [2] is 4.57 µM.

`Cc1ccc(OCc2nc(CN(CC(C)C)C(=O)c3ccco3)cs2)cc1`: the inhibition is 1.61% in [1] and 87.8% in data set [3]. This compound registered an IC50 in data set [2] of 1.67 µM.

What is called inhibition is the drop in the measured response relative to a control, in per cent. As usually defined, the IC50 is the concentration at which inhibition is half-maximal. Low readings indicate inhibition by little substance, high ones a need for much substance.
